Here are results for nine compounds from US5604227A, “Pyridazinedione compounds useful in treating neurological disorders” (Imperial Chemical Industries PLC, priority 1991, dated 1997).

Where two headings read alike, the source gives them in different places.

As a reminder, the IC50 is the concentration at which inhibition is half-maximal. The low end stands for higher potency, the high end for lower potency.

Test [1] has as its system NMDA receptor. The following applies: reference antagonists, general statement; cited from earlier work.
Test [2] concerns the target glycine receptor of the NMDA receptor complex. As to the kind of experiment: [3H]-glycine binding assay (Test A). Further details: species or system rat (Sprague-Dawley). Particulars: [3H]-glycine 20 nM, rat cortex/hippocampus membranes, pH 7.1, 30 min, 4° C. The text has this:
(§1) The actions of compounds according to the invention as antagonists at the glycine receptor of the NMDA receptor complex can be shown by one or more standard tests such as the [^3 H]-glycine binding assay (Test A), by functional assays in vitro such as tests for measuring glutamate-evoked contractions of the guinea pig ileum (Test B) and/or tests for measuring antagonism of NMDA-induced evoked response in hippocampal slices (Test C), and by tests in vivo such as ischemia induced by carotid occlusion in the gerbil model (Test D).
In the [^3 H]-glycine binding assay, neuronal synaptic membranes are prepared from adult (about 250 g) male Sprague-Dawley rats. Freshly dissected cortices and hippocampi are homogenized in 0.32M sucrose (110 mg/mL). Synaptosomes are isolated by centrifugation (1000 xg, 10 min), the supernatant is pelleted (20,000 xg, 20 min) and resuspended in double-distilled water. The suspension was centrifuged for 20 minutes at 8,000 xg. The resulting […] and bully coat are washed twice (48,000 xg, 10 mins, resuspension in double-deionized water). The final pellet is quickly frozen (dry ice/ethanol bath) under double-deionized water and stored at -70° C.
On the day of the experiment, thawed synaptic membranes are homogenized with a Brinkmann Polytron (tm, Brinkmann Instruments, Westbury, N.Y.) tissue homogenizer in 50 millimolar tris(hydroxymethyl)aminomethane citrate, pH 7.1. The membranes are incubated with 0.04% Sufact-AMPS X100 (tm, Pierce, Rockford, Ill.) in buffer for 20 minutes at 37° C. and washed six times by centrifugation (48,000 xg, 10 min) and resuspended in buffer. The final pellet is homogenized at 200 mg wet weight/mL of the buffer for the binding assay.
For [^3 H]-glycine binding at the N-methyl-D-aspartate receptor, 20 nanomolar [^3 H]-glycine (40-60 Ci/mmol, New England Nuclear, Boston, Mass.) is incubated with the membranes suspended in 50 millimolar tris (hydroxymethyl)aminomethane citrate, pH 7.1 for 30 minutes at 4° C. […] Radioactivity is estimated by liquid scintillation counting. […]

Test [3] deals with neuronal damage in the hippocampus. As to the kind of experiment: gerbil ischemic model, bilateral carotid occlusion (Test D). Type of test: in vivo, Mongolian gerbils. Particulars: 10 mg/Kg ip, pre- and post-occlusion (e.g. 45 min before and 5 min after).
From the text: as §1
When testing in vivo using the gerbil ischemic model, adult female Mongolian gerbils (50-70 g) are anesthetized with 2 to 3 % halothane. The bilateral common carotid arteries at the neck are exposed and occluded with microaneurysm clips. After 10 min (unless specified), the clips are removed and the blood flow through the carotid arteries is restored and the skin is sutured. Test compounds are administered intraperitoneally both pre- and post-occlusion, for example 45 minutes before and 5 minutes after occlusion of the carotid arteries. Sham-operated animals are treated in the same manner except that the arteries are not clamped. Gross behavioral observations along with motor activity are recorded for 2 hr on the first (24 hr) day following the occlusion. After 4 days, subjects are sacrificed (decapitation), brains are removed, fixed, sectioned and stained with hematoxylin/eosin and cresyl violet.
The brain sections are rated for neuronal damage in the hippocampus using the following rating scale:
1=slight damage (up to 25%)--restricted to CA1/subiculum border
2=moderate damage (up to 50%)--obvious damage, restricted to less than half of CA1 field
3=marked damage (up to 75%)--involving greater than half of CA1 field
4=damage extending beyond CA1 field
Sections (7 micron) are evaluated from each brain. […] The average brain damage rating score for each group is recorded, and the damage scores of the drug treated group are compared to the vehicle-treated group using Wilcoxon-Rank Sum test. […]

In test [4] the target is glycine receptor of the NMDA receptor complex (Cavia porcellus, UniProt A0A286XML8). Kind of test: glutamate-evoked contractions of the guinea pig ileum (Test B). The following applies: 100 micromolar glutamate-evoked contractions, compound 5 min before glutamate. The class given is cell-based.
From the text: as §1
For glutamate-evoked contractions of the guinea pig ileum, the methodology is as described previously (Luzzi et. al., Br. J. Pharmacol., 95, 1271-1277 (1989)). The longitudinal muscle and associated myenteric plexus are removed and placed in oxygenated modified Krebs-Henseleit solution (118 millimolar NaCl, 4.7 millimolar KCl, 2.5 millimolar CaCl, 1.2 millimolar KH2 PO4, 25 millimolar NaHCO3, and 11 millimolar glucose). Tissues are suspended on glass rods in organ baths under a resting tension of 0.5 g. After an initial depolarization with 80 millimolar potassium ion to remove possible blockade of the NMDA receptor channel complex with magnesium, twitch responses are evoked with 100 micromolar glutamate. Isometric mechanical responses are recorded. Tissues are equilibrated for at least 2 hours prior to addition of compounds.
A dose response curve for the effect of the unknown on the magnitude of the glutamate-evoked contractions is generated. Glutamate-evoked contractions are generated at 20 minute intervals, with the test compound added 5 minutes before the glutamate. The magnitude of the contraction with each dose of the unknown is expressed relative to the control, the third contraction evoked by 100 micromolar glutamate alone in the same tissue bath. The IC50 is obtained from a least-squares regression of a logit-log transformation of the data.
After the last contraction for the dose-response curve, 100 micromolar glycine is added to the bath 10 minutes after the previous addition of glutamate. […]

Test [5] deals with NMDA receptor. As to the kind of experiment: hippocampal slice test (HST), antagonism of NMDA-induced evoked response (Test C). The class given is cell-based, rat (Sprague-Dawley). The following applies: 5 μM, 0 Mg++.
From the text: as §1
The characterization of a compound as a glycine antagonist in the hippocampal slice test (HST) is dependent on (1) the ability of the compound to inhibit NMDA receptor-mediated synaptic transmission in hippocampal slices and (2) the subsequent reversal of these inhibitory effects by D-serine.
The procedure for the HST is as follows. Transverse hippocampal slices are obtained from male Sprague-Dawley rats weighting 80-150 gm. […]
For the electrophysiology part of the experiments, bipolar tungsten stimulating electrodes are positioned in the stratum radiatum of the CA3 cell body region of the hippocampus and a single-barrel glass microelectrode filled with Krebs-Ringer solution is positioned in the CA1 cell body region. Low frequency stimulation is then applied to area CA3 which evokes a primary population spike (PS) recorded from CA1. […]

Consider `O=C(O)C1CN(CCCP(=O)(O)O)CCN1` (stereo not shown) [CPP], for which the “reversal of the inhibition by D-serine” value in the test on NMDA receptor [1] is “not reversed by D-serine”.

Turning to `O=c1[nH][nH]c(=O)c2c(O)c3c(Cl)cc(Cl)cc3nc12` [Example 4, 7,9-Dichloro-2,3-dihydro-10-hydroxypyridazino[4,5-b]quinoline-1,4-dione], the values for the IC50 in test [2] and in test [4] were 80 nM and 2300 nM, respectively. For the same compound, in test [3], the “neuroprotection (relative to sham-operated control)” value is recorded as “Over 70%”.

Consider `NC1CCN(O)C1=O` (stereo not shown) [HA-966], for which, in the test on NMDA receptor [1], the “inhibition of the secondary PSs” value was “inhibit the secondary PSs” and the “reversal of the inhibition by D-serine” value was “reversed by D-serine”.

As for `c1ccc(C2(N3CCCCC3)CCCCC2)cc1` [PCP], the “reversal of the inhibition by D-serine” value in the test on NMDA receptor [1] is reported as “not reversed by D-serine”.

Regarding `C[C@]12N[C@H](Cc3ccccc31)c1ccccc12` [MK-801], in the test with NMDA receptor [1], the “reversal of the inhibition by D-serine” value is given as “not reversed by D-serine”.

As to `O=C(O)c1cc(O)c2ccc(Cl)cc2n1` [7-chlorokynurenic acid], in the test with NMDA receptor [1], the “inhibition of the secondary PSs” value was “inhibit the secondary PSs” and the “reversal of the inhibition by D-serine” value is “reversed by D-serine”.

Consider `NC(CCCP(=O)(O)O)C(=O)O` (stereo not shown) [APV], for which, in the test with NMDA receptor [1], the “reversal of the inhibition by D-serine” value is given as “not reversed by D-serine”.

In test [2], `O=c1[nH][nH]c(=O)c2c(O)c3ccc(Cl)cc3nc12` [Example 2, 7-Chloro-2,3-dihydro-10-hydroxypyridazino[4,5-b]quinoline-1,4-dione] had an IC50 of 240 nM. Moreover, in the test on NMDA receptor [5], the “antagonism in the hippocampal slice test (inhibition of secondary population spikes)” value is recorded as “antagonist” and the “reversal of the inhibition by D-serine” value is “reversed by D-serine”. For the same compound, the “neuroprotection (relative to sham-operated control)” value in test [3] is given as “Over 70%”. In addition, in test [4], the half-maximal inhibitory concentration (IC50) came to 2100 nM.

`O=c1[nH][nH]c(=O)c2c(O)c3ccc([N+](=O)[O-])cc3nc12` [Example 11, 2,3-Dihydro-10-hydroxy-7-nitropyridazino[4,5-b]quinoline-1,4-dione]: the IC50 in test [2] amounted to 8500 nM; in test [4], 86000 nM. Further, in test [3], the “neuroprotection (relative to sham-operated control)” value is “over 60%”.
